pIC50: −log10 of the molar value. Read-outs that look alike come from different tables or passages of the source.
Molecular target: T1, Mammalian DNA-PK, isolated from Hela cell nuclear extract (Homo sapiens, UniProt P78527)
T1 construct: Mammalian DNA-PK, isolated from Hela cell nuclear extract; endogenous in cells; host or cells: HeLa cell nuclear extract (purified per Gell and Jackson 1999)
Experiment: DNA-PK inhibition assay (33P-ATP, filter binding)
Assay type: biochemical
Description: In order to assess the inhibitory action of the compounds against DNA-PK in vitro, the following assay was used to determine IC50 values.
The total assay volume per well was 40 μl.
After 10 minutes of incubation at 30° C. the reactions were initiated by the addition of Na-ATP (50 μM final), ^33p-γATP and a 30mer double stranded DNA oligonucleotide (10 ng/μl) in a volume of 10 μl. Designated positive and negative reaction wells were done in combination with compound wells (unknowns) in order to calculate % enzyme activities. The plates were then shaken for 2 minutes and incubated at 30° C. for 45 minutes.
Following the incubation, the reactions were quenched by the addition of 50 μl 30% acetic acid to each well. The plates were then shaken for 5 minutes and the contents of each plate (80 μl from each well) transferred over to a 96 well Polyfiltronics filtration plate, containing P81-phosphocellulose membrane (TRADE MARK)(Whatman, UK). The solutions were vacuum pumped through the membrane and each well membrane washed four times using 300 μl of 15% acetic acid. The well membranes were then air dried and 20 μl of scintillant was added to each well.
The plates were transferred to a TopCount NXT (TRADE MARK) (Packard, UK) for scintillation counting. Values recorded are counts per minute (cpm) following a 1 minute counting time for each well.
The enzyme activity for each compound is then calculated using the following equation: […]
These are determined over a range of different concentrations, normally from 10 μM down to 0.01 μM. Such IC50 values are used as comparative values to identify increased compound potencies.

[1] = concentration at which 50% of the enzyme activity is inhibited, read-out: DNA-PK Inhibition IC50
[2] = IC50 of less than about 1 μM and/or % inhibition of more than about 50 at 1 μM, read-out: DNA-PK inhibition IC50 (particular efficacy)

For `O=c1cc(N2CCOCC2)oc2ccc(O)cc12` [Compound 343, 6-Hydroxy-2-(morpholin-4-yl)-chromen-4-one], the pIC50 [1] was 6.15.
In the case of `COc1ccc(-c2cccc3c(=O)cc(N4CCOCC4)oc23)cc1` [Compound 385], the pIC50 was greater than 6.00.
For `O=c1cc(-c2ccc(CNCc3ccc(OC(F)(F)F)cc3)cc2)oc(N2CCOCC2)c1` [Compound 252], the pIC50 [2] was greater than 6.00.
`O=C(NCCCNC(=O)c1ccc(-c2cc(=O)cc(N3CCOCC3)o2)cc1)OCc1ccccc1` [Compound 203] showed a pIC50 [2] greater than 6.00.
In the case of `COC(=O)c1ccc(COc2ccc3c(=O)cc(N4CCOCC4)oc3c2)cc1` [Compound 339, Methyl 4-(2-(morpholin-4-yl)-4-oxo-4H-chromen-7-yloxymethyl)-benzoate], the pIC50 [2] was greater than 6.00.
`COCCNC(=O)c1cccc(-c2cc(=O)cc(N3CCOCC3)o2)c1` [Compound 127] gave a pIC50 [2] greater than 6.00.
`N#Cc1ccc(COc2ccc3c(=O)cc(N4CCOCC4)oc3c2)cc1` [Compound 338, 7-(4-cyano-benzyloxy)-2-morpholin-4-yl-chromen-4-one] was tested, and the pIC50 [2] was greater than 6.00 and the pIC50 [1] was 6.02.
`O=C(CSc1ccccc1)Nc1ccc(-c2cc(=O)cc(N3CCOCC3)o2)cc1` [Compound 270] showed a pIC50 [2] greater than 6.00.
`O=C(NCc1cc(F)cc(C(F)(F)F)c1)c1ccc(-c2cc(=O)cc(N3CCOCC3)o2)cc1` [Compound 179] gave a pIC50 [2] greater than 6.00.
`O=C1c2ccccc2C(=O)N1Cc1cccc(-c2ccc3c(=O)cc(N4CCOCC4)oc3c2)c1` [Compound 375] was tested, and the pIC50 [2] was greater than 6.00.
`O=C(c1cccc(-c2cc(=O)cc(N3CCOCC3)o2)c1)N1CCCC(CO)C1` (stereo not drawn) [Compound 140] showed a pIC50 [2] greater than 6.00.
For `O=C(NCc1cccc(F)c1)c1ccc(-c2cc(=O)cc(N3CCOCC3)o2)cc1` [Compound 169], the pIC50 [2] was greater than 6.00.
In the case of `O=C(NCc1cccs1)c1cccc(-c2cc(=O)cc(N3CCOCC3)o2)c1` [Compound 131], the pIC50 [2] was greater than 6.00.
In the case of `O=C(NCc1cccc(C(F)(F)F)c1)c1ccc(-c2cc(=O)cc(N3CCOCC3)o2)cc1` [Compound 178], the pIC50 [2] was greater than 6.00.
Compound `O=C(NCCCc1ccccc1)c1ccc(-c2cc(=O)cc(N3CCOCC3)o2)cc1` [Compound 170] has a pIC50 [2] greater than 6.00.
`O=C(NCc1cc(C(F)(F)F)cc(C(F)(F)F)c1)c1ccc(-c2cc(=O)cc(N3CCOCC3)o2)cc1` [Compound 176] showed a pIC50 [2] greater than 6.00.
With `CC(=O)c1ccc(-c2cccc3c(=O)cc(N4CCOCC4)oc23)s1` [Compound 409] the pIC50 [2] was greater than 6.00.
With `Cc1cccc(COc2ccc3c(=O)cc(N4CCOCC4)oc3c2)c1` [Compound 342, 7-(3-Methylbenzyloxy)-2-(morpholin-4-yl)-chromen-4-one] the pIC50 [1] was 6.10.
`O=C(NCc1ccc(OC(F)(F)F)cc1)c1ccc(-c2cc(=O)cc(N3CCOCC3)o2)cc1` [Compound 175] gave a pIC50 [2] greater than 6.00.
In the case of `COc1cccc(CNCc2ccc(-c3cc(=O)cc(N4CCOCC4)o3)cc2)c1OC` [Compound 253], the pIC50 [2] was greater than 6.00.
Work on `O=c1cc(N2CCOCC2)oc2cc(OCc3cccc(Cl)c3)ccc12` [Compound 341, 7-(3-Chlorobenzyloxy)-2-(morpholin-4-yl)-chromen-4-one] yielded a pIC50 [2] greater than 6.00 and a pIC50 [1] of 6.19.
`O=c1cc(-c2cccc3ccsc23)oc(N2CCOCC2)c1` [Compound 72] gave a pIC50 [2] greater than 6.00.
`O=C(NC1CN2CCC1CC2)c1ccc(-c2cc(=O)cc(N3CCOCC3)o2)cc1` (stereo not drawn) [Compound 206] showed a pIC50 greater than 6.00.
Compound `COC(=O)C(NCc1ccc(-c2cc(=O)cc(N3CCOCC3)o2)cc1)c1ccccc1` (stereo not drawn) [Compound 247] has a pIC50 [2] greater than 6.00.
For `N#CCNC(=O)c1cccc(-c2cc(=O)cc(N3CCOCC3)o2)c1` [Compound 73], the pIC50 [2] was greater than 6.00.
`O=C(NCCOc1ccccc1)c1cccc(-c2cc(=O)cc(N3CCOCC3)o2)c1` [Compound 126] showed a pIC50 [2] greater than 6.00.
For `O=c1cc(-c2ccc3c(c2)CCO3)oc(N2CCOCC2)c1` [Compound 59], the pIC50 [2] was greater than 6.00.
`O=c1cc(N2CCOCC2)oc2c(-c3ccc(CO)cc3)cccc12` [Compound 394] showed a pIC50 greater than 6.00.
`O=c1cc(N2CCOCC2)oc2c(-c3cccc4c3oc3ccccc34)cccc12` [Compound 410] was tested, and the pIC50 [2] was greater than 6.00.
Compound `CCOC(=O)CC(=O)Nc1ccc(-c2cc(=O)cc(N3CCOCC3)o2)cc1` [Compound 269] has a pIC50 [2] greater than 6.00.
`O=C(Nc1ccc(-c2cc(=O)cc(N3CCOCC3)o2)cc1)C1CCCN1C(=O)C(F)(F)F` (stereo not drawn) [Compound 279] showed a pIC50 [2] greater than 6.00.
`Nc1cccc(CNC(=O)c2cccc(-c3cc(=O)cc(N4CCOCC4)o3)c2)c1` [Compound 104] was tested, and the pIC50 [2] was greater than 6.00.
For `CN(C)c1ccc(CNC(=O)c2cccc(-c3cc(=O)cc(N4CCOCC4)o3)c2)cc1` [Compound 105], the pIC50 [2] was greater than 6.00.
In the case of `O=c1cc(N2CCSC2)oc2c1ccc1ccccc12` [Compound 330, 2-(Thiazolidin-3-yl)-benzo[h]chromen-4-one], the pIC50 [1] was 4.70.
`O=C(NC(CO)CO)c1ccc(-c2cc(=O)cc(N3CCOCC3)o2)cc1` [Compound 190] was tested, and the pIC50 [2] was greater than 6.00.
For `Nc1cccc(CNC(=O)c2ccc(-c3cc(=O)cc(N4CCOCC4)o3)cc2)c1` [Compound 182], the pIC50 [2] was greater than 6.00.
`Nc1ccccc1CNCc1ccc(-c2cc(=O)cc(N3CCOCC3)o2)cc1` [Compound 255] was tested, and the pIC50 [2] was greater than 6.00.
For `O=c1cc(N2CCOCC2)oc2c(-c3cc4ccccc4s3)cccc12` [Compound 408], the pIC50 [2] was greater than 6.00.
Work on `O=C(Cc1cccs1)Nc1ccc(-c2cc(=O)cc(N3CCOCC3)o2)cc1` [Compound 271] yielded a pIC50 [2] greater than 6.00.
Work on `COC(=O)c1cccc(COc2ccc3c(=O)cc(N4CCOCC4)oc3c2)c1` [Compound 340, Methyl 3-(2-(morpholin-4-yl)-4-oxo-4H-chromen-7-yloxymethyl)-benzoate] yielded a pIC50 [2] greater than 6.00.
For `O=c1cc(-c2ccc(CNCc3cccc(F)c3)cc2)oc(N2CCOCC2)c1` [Compound 249], the pIC50 [2] was greater than 6.00.
`O=C(CNC(=O)c1cccc(-c2cc(=O)cc(N3CCOCC3)o2)c1)c1cccc([N+](=O)[O-])c1` [Compound 123] showed a pIC50 [2] greater than 6.00.
`O=C(NCc1ccco1)c1ccc(-c2cc(=O)cc(N3CCOCC3)o2)cc1` [Compound 211] showed a pIC50 [2] greater than 6.00.
`O=c1cc(N2CCOCC2)oc2c(-c3ccsc3)cccc12` [Compound 403] was tested, and the pIC50 [2] was greater than 6.00.
`O=C(NCc1cccc(C(F)(F)F)c1)c1cccc(-c2cc(=O)cc(N3CCOCC3)o2)c1` [Compound 99] showed a pIC50 [2] greater than 6.00.
In the case of `CC(C)(C)OC(=O)CNC(=O)c1ccc(-c2cc(=O)cc(N3CCOCC3)o2)cc1` [Compound 194], the pIC50 [2] was greater than 6.00.
Compound `COCCCNC(=O)c1cccc(-c2cc(=O)cc(N3CCOCC3)o2)c1` [Compound 125] has a pIC50 [2] greater than 6.00.
`O=C(c1cccc(-c2cc(=O)cc(N3CCOCC3)o2)c1)N1CCN(C/C=C/c2ccccc2)CC1` [Compound 143] showed a pIC50 [2] greater than 6.00.
Work on `CSCCC(CO)NC(=O)c1ccc(-c2cc(=O)cc(N3CCOCC3)o2)cc1` (stereo not drawn) [Compound 192] yielded a pIC50 [2] greater than 6.00.
Work on `O=C(NC1CCN(Cc2ccccc2)CC1)c1ccc(-c2cc(=O)cc(N3CCOCC3)o2)cc1` [Compound 205] yielded a pIC50 [2] greater than 6.00.
`CC(=O)OC(C)C(=O)Nc1ccc(-c2cc(=O)cc(N3CCOCC3)o2)cc1` (stereo not drawn) [Compound 267] was tested, and the pIC50 [2] was greater than 6.00.
Work on `O=C(c1cccc(-c2cc(=O)cc(N3CCOCC3)o2)c1)N1CCOCC1` [Compound 139] yielded a pIC50 [2] greater than 6.00.
`NCc1cccc(CNC(=O)c2cccc(-c3cc(=O)cc(N4CCOCC4)o3)c2)c1` [Compound 107] gave a pIC50 [2] greater than 6.00.
`O=c1cc(N2CCCC2)oc2c1ccc1ccccc12` [Compound 312, 2-pyrrolidin-1-yl-benzo[h]chromen-4-one] showed a pIC50 [1] of 5.00.
Work on `O=C(NCCOc1ccccc1)c1ccc(-c2cc(=O)cc(N3CCOCC3)o2)cc1` [Compound 202] yielded a pIC50 [2] greater than 6.00.

— patent US7674823B2, “DNA-PK inhibitors” (Cancer Research Technology Limited, priority 2001, dated 2010)
